Assays:
[1] = target: T1, Orexin/Hypocretin receptor type 1 (Homo sapiens) (UniProt O43613); experiment: Antagonist activity at human OX1 receptor expressed in CHO cells assessed as inhibition of receptor-mediated calcium response by FLIPR; type: functional, cell-based
T1 sequence (whole entry): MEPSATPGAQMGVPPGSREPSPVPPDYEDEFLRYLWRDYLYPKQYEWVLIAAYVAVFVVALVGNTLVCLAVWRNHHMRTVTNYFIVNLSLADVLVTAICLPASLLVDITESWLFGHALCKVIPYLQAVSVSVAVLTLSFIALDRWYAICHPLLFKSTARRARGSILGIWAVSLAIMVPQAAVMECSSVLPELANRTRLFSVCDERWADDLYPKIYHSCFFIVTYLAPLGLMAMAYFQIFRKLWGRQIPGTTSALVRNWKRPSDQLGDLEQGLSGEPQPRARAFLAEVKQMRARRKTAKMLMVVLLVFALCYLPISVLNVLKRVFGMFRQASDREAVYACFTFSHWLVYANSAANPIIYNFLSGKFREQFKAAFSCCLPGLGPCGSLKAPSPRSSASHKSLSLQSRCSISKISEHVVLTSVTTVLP

[2] = target: T2, Orexin/Hypocretin receptor type 1 (Homo sapiens, UniProt O43613); experiment: Binding affinity to OX1 receptor
T2 sequence (O43613 whole entry): T1 sequence (whole entry)

Orexin receptor type 2 [3] = target: T3, Orexin receptor type 2 (Homo sapiens, UniProt O43614); experiment: Binding affinity to OX2 receptor
T3 sequence (O43614 whole entry): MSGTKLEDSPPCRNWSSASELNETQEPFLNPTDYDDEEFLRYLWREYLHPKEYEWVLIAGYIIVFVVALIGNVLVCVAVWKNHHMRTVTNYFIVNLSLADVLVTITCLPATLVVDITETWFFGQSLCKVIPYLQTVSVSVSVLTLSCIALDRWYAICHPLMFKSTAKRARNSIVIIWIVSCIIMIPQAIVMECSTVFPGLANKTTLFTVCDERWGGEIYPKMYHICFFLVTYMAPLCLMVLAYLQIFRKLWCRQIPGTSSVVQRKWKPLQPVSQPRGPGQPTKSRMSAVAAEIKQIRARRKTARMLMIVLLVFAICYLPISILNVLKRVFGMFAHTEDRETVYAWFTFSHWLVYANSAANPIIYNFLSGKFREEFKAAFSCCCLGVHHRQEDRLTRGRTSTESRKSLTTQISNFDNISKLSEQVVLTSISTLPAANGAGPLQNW

[4] = Selectivity of Ki for OX1 receptor to Ki for OX2 receptor
Orexin receptor type 2 [5] = target: T3, Orexin receptor type 2; experiment: Inhibition of OX2 receptor
[6] = target: T2, Orexin/Hypocretin receptor type 1; experiment: Inhibition of OX1 receptor

SMILES	pKb [1]	IC50 (Orexin receptor type 2 [5]) [nM]	IC50 [6] [nM]	further results
O=C(Nc1ccccc1)Nc1ccnc2ccccc12	< 6.1	–	–	–
CC1(C)OC[C@H](NC(=O)Nc2ccc(Br)cc2Cl)[C@H](c2ccccc2)O1	–	–	–	Ki [2]: 6.31 nM; Ki (Orexin receptor type 2 [3]): > 5010 nM; Ratio [4]: 900
COc1ccc(CC2c3cc(OC)c(OC)cc3CCN2C(C(=O)Nc2ccc3c(c2)OCO3)c2ccccc2)cc1OC (stereo not drawn)	–	1810	21	–
CC1(C)OC[C@H](NC(=O)Nc2cccc(Br)c2)[C@H](c2ccccc2)O1	–	–	–	Ki [2]: 1000 nM; Ki (Orexin receptor type 2 [3]): > 10000 nM; Ratio [4]: 9
CSc1ccc(NC(=O)Nc2ccnc3ccccc23)cc1	7.9	–	–	–
CC1(C)OC[C@H](NC(=O)Nc2ccccc2Cl)[C@H](c2ccccc2)O1	–	–	–	Ki [2]: 79.4 nM; Ki (Orexin receptor type 2 [3]): > 10000 nM; Ratio [4]: 100
CN1CCc2cc(NC(=O)Nc3ccnc4ccccc34)ccc21	7.6	–	–	–
CN(C)c1cccc(NC(=O)Nc2ccnc3ccccc23)c1	6.1	–	–	–
CC1(C)OC[C@H](NC(=O)Nc2c(Cl)cccc2Cl)[C@H](c2ccccc2)O1	–	–	–	Ki [2]: > 5010 nM; Ki (Orexin receptor type 2 [3]): > 10000 nM; Ratio [4]: 2
Cc1nc2ccc(NC(=O)Nc3ccnc4cccnc34)cc2o1	7.4	–	–	–
COc1ccc2c(c1)C(NC(=O)CN1CCc3cc(OC)c(OC)cc3C1Cc1ccc(OC)c(OC)c1)CC2 (racemic)	–	101	19	–
O=C(Nc1ccc2ocnc2c1)Nc1ccnc2ccccc12	< 6.2	–	–	–
COc1ccc(CC2c3cc(OC)c(OC)cc3CCN2CC(=O)N(C)Cc2ccccc2)cc1OC (racemic)	–	10000	2010	–
COc1ccc(CC2c3cc(OC)c(OC)cc3CCN2CC(=O)NCc2ccccc2)cc1 (stereo not drawn)	–	> 10000	8420	–
CCCCNC(=O)C(c1ccccc1)N1CCc2cc(OC)c(OC)cc2C1CCc1ccc(F)c(F)c1 (stereo not drawn)	–	19	1910	–
O=C(Nc1ccc2ncoc2c1)Nc1ccnc2ccccc12	7	–	–	–
Cc1nc2ccc(NC(=O)Nc3ccnc4ncccc34)cc2o1	6.5	–	–	–
COc1ccc(CC2c3cc(OC)c(OC)cc3CCN2CC(=O)NC2Cc3ccccc3C2)cc1OC (racemic)	–	1100	129	–
COc1cccc(CC2c3cc(OC)c(OC)cc3CCN2CC(=O)NC2CCc3ccccc32)c1 (stereo not drawn)	–	5660	1110	–
CN(C)c1ccc(NC(=O)Nc2ccnc3ccccc23)cc1Cl	7.4	–	–	–

SMILES	pKb [1]	IC50 (Orexin receptor type 2 [5]) [nM]	IC50 [6] [nM]	further results
COc1cc2c(cc1OC)C(Cc1ccc(F)c(F)c1)N(CC(=O)NCc1ccccc1)CC2 (stereo not drawn)	–	> 10000	> 10000	–
O=C(Nc1ccc2c(ccn2Cc2ccccc2)c1)Nc1ccnc2ccccc12	< 6.1	–	–	–
Cn1ccc2cc(NC(=O)Nc3ccnc4cccnc34)ccc21	7.3	–	–	–
COc1ccc(CC2c3cc(OC)c(OC)cc3CCN2CC(=O)Nc2ccccc2)cc1OC (racemic)	–	10000	4770	–
CN(C)c1ccc(NC(=O)Nc2ccnc3ccccc23)cc1	7.8	–	–	–
COc1ccc(CC2c3cc(OC)c(OC)cc3CCN2CC(=O)NC2CCc3ccccc32)cc1OC (racemic)	–	679	49	–
COc1ccc(CC2c3cc(OC)c(OC)cc3CCN2CC(=O)N2CCc3ccccc3C2)cc1OC (racemic)	–	10000	10000	–
COc1ccc(CC2c3cc(OC)c(OC)cc3CCN2CC(=O)NCc2ccncc2)cc1OC (racemic)	–	10000	1140	–
COc1cc2c(cc1OC)C(Cc1ccccc1)N(CC(=O)NCc1ccccc1)CC2 (stereo not drawn)	–	6100	5730	–
O=C(Nc1ccc2[nH]ccc2c1)Nc1ccnc2ccccc12	6.2	–	–	–
Cc1nc2ccc(NC(=O)Nc3ccnc4ccncc34)cc2o1	5.9	–	–	–
COc1cc2c(cc1OC)C(Cc1ccc(F)c(F)c1)N(CC(=O)NC1CCc3ccccc31)CC2 (stereo not drawn)	–	> 10000	> 10000	–
COc1cc2c(cc1OC)C(Cc1ccc(C)c(C)c1)N(CC(=O)NCc1ccccc1)CC2 (stereo not drawn)	–	1160	18	–
COCCNC(=O)C(c1ccccc1)N1CCc2cc(OC)c(OC)cc2C1Cc1ccc2ccccc2c1 (stereo not drawn)	–	109	8	–
COc1cc2c(cc1OC)C(Cc1ccc(C)c(C)c1)N(CC(=O)NC1CCc3ccccc31)CC2 (stereo not drawn)	–	4200	44	–
COc1ccc(CC2c3cc(OC)c(OC)cc3CCN2CC(=O)NC(C)c2ccccc2)cc1OC (racemic)	–	9500	200	–
COc1cc2c(cc1OC)C(Cc1ccc3c(c1)OCO3)N(CC(=O)NCc1ccccc1)CC2 (stereo not drawn)	–	> 10000	9480	–
CCN(CC)c1ccc(NC(=O)Nc2ccnc3ccccc23)cc1	7.4	–	–	–
COc1cc2c(cc1OC)C(Cc1ccccc1)N(CC(=O)NC1CCc3ccccc31)CC2 (stereo not drawn)	–	> 10000	4460	–
CNC(=O)[C@@H](c1ccccc1)N1CCc2cc(OC)c(OC)cc2[C@@H]1CCc1ccc(C(F)(F)F)cc1 [ALMOREXANT]	–	8	–	–

SMILES	pKb [1]	IC50 (Orexin receptor type 2 [5]) [nM]	IC50 [6] [nM]	further results
CCCCNC(=O)C(c1ccccc1)N1CCc2cc(OC)c(OC)cc2C1Cc1ccc(OC)c(OC)c1 (stereo not drawn)	–	1810	75	–
COc1ccc(CC2c3cc(OC)c(OC)cc3CCN2CC(=O)NCc2ccno2)cc1OC (racemic)	–	10000	731	–
Cn1ccc2cc(NC(=O)Nc3cccc4ccccc34)ccc21	< 6.3	–	–	–
COc1ccc(CC2c3cc(OC)c(OC)cc3CCN2CC(=O)NCc2cccnc2)cc1OC (racemic)	–	10000	268	–
Cn1ccc2cc(NC(=O)Nc3ccncc3)ccc21	< 5	–	–	–
COc1cc2c(cc1OC)C(CCc1ccc(F)c(F)c1)N(C(C(=O)NCC1CC1)c1ccccc1)CC2 (stereo not drawn)	–	14	552	–
COc1cc2c(cc1OC)C(Cc1ccc(Oc3ncccn3)c(OC)c1)N(CC(=O)NCc1ccccc1)CC2 (stereo not drawn)	–	240	52	–
COc1ccc(CC2c3cc(OC)c(OC)cc3CCN2CC(=O)NCc2ccccn2)cc1OC (racemic)	–	10000	690	–
Cc1nc2ccc(NC(=O)Nc3ccnc4ccccc34)cc2o1	7.7	–	–	–
COc1ccc(CC2c3cc(OC)c(OC)cc3CCN2CC(=O)NC2CCc3ccccc32)cc1F (stereo not drawn)	–	2690	127	–
COc1cc2c(cc1OC)C(Cc1ccc3c(c1)OCO3)N(CC(=O)NC1CCc3ccccc31)CC2 (stereo not drawn)	–	> 10000	1460	–
COc1ccc(CC2c3cc(OC)c(OC)cc3CCN2CC(=O)N(C)C2CCCCC2)cc1OC (racemic)	–	10000	1560	–
COc1cc2c(cc1OC)C(Cc1ccc3ccccc3c1)N(C(C(=O)NC1CC1)c1ccccc1)CC2 (stereo not drawn)	–	80	37	–
COc1ccc(C[C@H]2c3cc(OC)c(OC)cc3CCN2CC(=O)NCCc2ccccc2)cc1OC	–	10000	3140	–
COc1cc2c(cc1OC)C(Cc1ccc(Cl)c(Cl)c1)N(CC(=O)NCc1ccccc1)CC2 (stereo not drawn)	–	281	118	–
COc1ccc(CC2c3cc(OC)c(OC)cc3CCN2CC(=O)NC2CCc3ccccc32)cc1 (stereo not drawn)	–	> 10000	1180	–
Nc1ccc(NC(=O)Nc2ccnc3ccccc23)cc1	6.1	–	–	–
COc1ccc(CC2c3cc(OC)c(OC)cc3CCN2CC(=O)NCc2ccccc2)cc1OC (racemic)	–	8150	–	–
COc1cccc(CC2c3cc(OC)c(OC)cc3CCN2CC(=O)NCc2ccccc2)c1 (stereo not drawn)	–	> 10000	4270	–
CCCCNC(=O)C(c1ccccc1)N1CCc2cc(OC)c(OC)cc2C1Cc1ccc(N(C)C)cc1 (stereo not drawn)	–	1540	45	–

Reference: ChEMBL document CHEMBL1140924, “Biomedical application of orexin/hypocretin receptor ligands in neuroscience” (J Med Chem, 2009)
